Source: ChEMBL document CHEMBL1201862, “PubChem BioAssay data set” (2004)
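Five concentrations, 48 hours, 96-well plates. Abbreviation: GI50, concentration required for 50% inhibition of growth.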 The source made the active and inactive calls. No stated cut-off is given here; in the data, active = GI50 up to about 1.1 µM and inactive = higher.

How the values were obtained:
Assay in all cases: NCI-60 cell line screen, 48 h
DU-145 = system: DU-145
SF-539 = system: SF-539
PC-3 = system: PC-3
HT-29 = system: HT-29
SF-295 = system: SF-295
SK-MEL-5 = system: SK-MEL-5
UACC-257 = system: UACC-257
NCI-H460 = system: NCI-H460
U-251 = system: U-251
HCT-116 = system: HCT-116
ACHN = system: ACHN
OVCAR-8 = system: OVCAR-8
EKVX = system: EKVX
UO-31 = system: UO-31
HCT-15 = system: HCT-15
NCI-H226 = system: NCI-H226
KM12 = system: KM12
SN12C = system: SN12C
UACC-62 = system: UACC-62

Q: What does the source list for `C[C@@H]1CCC2[C@@H](C)[C@@H](O[C@H]3O[C@@H]4O[C@@]5(C)CCC6[C@H](C)CCC([C@H]3C)[C@]64OO5)O[C@@H]3O[C@@]4(C)CCC1[C@@]23OO4` (stereo partly drawn)?
A: GI50 (DU-145): > 25 µM (inactive); GI50 (SF-539): > 5.51 µM (inactive); GI50 (PC-3): 0.18 µM (active); GI50 (HT-29): 1.31 µM (inactive); GI50 (SF-295): > 16.7 µM (inactive); GI50 (SK-MEL-5): 3.44 µM (inactive); GI50 (UACC-257): > 25 µM (inactive); GI50 (NCI-H460): > 25 µM (inactive); GI50 (U-251): > 25 µM (inactive); GI50 (HCT-116): 0.659 µM (active); GI50 (ACHN): 3.27 µM (inactive); GI50 (OVCAR-8): 1.19 µM (inactive); GI50 (EKVX): 2.07 µM (inactive); GI50 (UO-31): 1.71 µM (inactive); GI50 (HCT-15): 0.733 µM; GI50 (NCI-H226): > 15.6 µM (inactive); GI50 (KM12): 0.865 µM (active); GI50 (SN12C): 16.7 µM (inactive); GI50 (UACC-62): 1.99 µM (inactive)

Q: Which results are given for `C[C@@H]1C(=O)CC2(O)[C@@]13C[C@@H](OC(=O)[C@@H]3O)[C@@H](C)[C@@]21COC1=O` (stereo partly drawn)?
A: GI50 (DU-145): > 100 µM (inactive); GI50 (SF-539): > 100 µM (inactive); GI50 (PC-3): > 100 µM (inactive); GI50 (HT-29): > 100 µM (inactive); GI50 (SF-295): > 100 µM (inactive); GI50 (SK-MEL-5): > 100 µM (inactive); GI50 (UACC-257): > 100 µM (inactive); GI50 (NCI-H460): > 100 µM (inactive); GI50 (U-251): > 100 µM (inactive); GI50 (HCT-116): > 100 µM (inactive); GI50 (ACHN): > 100 µM (inactive); GI50 (OVCAR-8): > 100 µM (inactive); GI50 (EKVX): > 100 µM (inactive); GI50 (UO-31): > 100 µM (inactive); GI50 (HCT-15): > 100 µM; GI50 (NCI-H226): > 100 µM (inactive); GI50 (KM12): > 100 µM (inactive); GI50 (SN12C): > 100 µM (inactive); GI50 (UACC-62): > 100 µM (inactive)

Q: For `CC(=O)OC1CC2(C)C(=CC1C1SCCS1)CCC1C2CCC2(C)C(OC(C)=O)CCC12` (stereo not drawn), which GI50 (DU-145) is on record?
A: > 100 µM (inactive)

Q: What about the GI50 (SF-539) of the same compound?
A: 53.1 µM (inactive)

Q: What about the GI50 (PC-3) of the same compound?
A: > 100 µM (inactive)

Q: What about the GI50 (HT-29) of the same compound?
A: > 100 µM (inactive)

Q: And the GI50 (SF-295)?
A: 23.4 µM (inactive)

Q: What about the GI50 (SK-MEL-5) of the same compound?
A: > 100 µM (inactive)

Q: What about the GI50 (UACC-257) of the same compound?
A: > 100 µM (inactive)

Q: And the GI50 (NCI-H460)?
A: > 100 µM (inactive)

Q: And the GI50 (U-251)?
A: 32.3 µM (inactive)

Q: What about the GI50 (HCT-116) of the same compound?
A: > 100 µM (inactive)

Q: And the GI50 (ACHN)?
A: > 100 µM (inactive)

Q: What about the GI50 (OVCAR-8) of the same compound?
A: > 100 µM (inactive)

Q: And the GI50 (EKVX)?
A: > 100 µM (inactive)

Q: What about the GI50 (UO-31) of the same compound?
A: > 100 µM (inactive)

Q: What about the GI50 (HCT-15) of the same compound?
A: > 100 µM

Q: What about the GI50 (NCI-H226) of the same compound?
A: > 100 µM (inactive)

Q: What about the GI50 (KM12) of the same compound?
A: > 100 µM (inactive)

Q: What about the GI50 (SN12C) of the same compound?
A: > 100 µM (inactive)

Q: And the GI50 (UACC-62)?
A: > 100 µM (inactive)

Q: What does the source list for `CCCS(=O)OC1C(C2COC(C)(C)O2)OC2OC(C)(C)OC21` (stereo not drawn)?
A: GI50 (DU-145): 20.2 µM (inactive); GI50 (SF-539): 10.3 µM (inactive); GI50 (PC-3): 2.87 µM (inactive); GI50 (HT-29): 3.89 µM (inactive); GI50 (SF-295): 15.1 µM (inactive); GI50 (SK-MEL-5): 13.2 µM (inactive); GI50 (UACC-257): 13.6 µM (inactive); GI50 (NCI-H460): 22.8 µM (inactive); GI50 (U-251): 8.26 µM (inactive); GI50 (HCT-116): 6.07 µM (inactive); GI50 (ACHN): 13.7 µM (inactive); GI50 (OVCAR-8): 10.5 µM (inactive); GI50 (EKVX): 16.4 µM (inactive); GI50 (UO-31): 15 µM (inactive); GI50 (HCT-15): 13.7 µM; GI50 (NCI-H226): 21.7 µM (inactive); GI50 (KM12): 13.1 µM (inactive); GI50 (SN12C): 12.5 µM (inactive); GI50 (UACC-62): 12.1 µM (inactive)

Q: Which GI50 (DU-145) does the source give for `O=C1OC(C2(O)OC(=O)c3ccccc32)c2ccccc21` (stereo not drawn) here?
A: > 100 µM (inactive)

Q: And the GI50 (SF-539)?
A: > 100 µM (inactive)

Q: And the GI50 (PC-3)?
A: > 100 µM (inactive)

Q: And the GI50 (HT-29)?
A: > 100 µM (inactive)

Q: What about the GI50 (SF-295) of the same compound?
A: > 100 µM (inactive)

Q: And the GI50 (SK-MEL-5)?
A: > 100 µM (inactive)

Q: What about the GI50 (UACC-257) of the same compound?
A: > 100 µM (inactive)

Q: And the GI50 (NCI-H460)?
A: > 100 µM (inactive)

Q: And the GI50 (U-251)?
A: > 100 µM (inactive)

Q: What about the GI50 (HCT-116) of the same compound?
A: > 100 µM (inactive)

Q: And the GI50 (ACHN)?
A: > 100 µM (inactive)

Q: What about the GI50 (OVCAR-8) of the same compound?
A: > 100 µM (inactive)

Q: And the GI50 (EKVX)?
A: 62.4 µM (inactive)

Q: And the GI50 (UO-31)?
A: > 100 µM (inactive)

Q: And the GI50 (HCT-15)?
A: > 100 µM

Q: And the GI50 (NCI-H226)?
A: > 100 µM (inactive)

Q: What about the GI50 (KM12) of the same compound?
A: > 100 µM (inactive)

Q: And the GI50 (SN12C)?
A: > 100 µM (inactive)

Q: And the GI50 (UACC-62)?
A: > 100 µM (inactive)

Q: Which GI50 (DU-145) does the source give for `CCc1ccccc1NC(=O)C(=O)CC(=O)c1sc(Nc2ccccc2Cl)nc1C` here?
A: 55.1 µM (inactive)

Q: What about the GI50 (SF-539) of the same compound?
A: 24.4 µM (inactive)

Q: And the GI50 (PC-3)?
A: 26.9 µM (inactive)

Q: What about the GI50 (HT-29) of the same compound?
A: 22.1 µM (inactive)

Q: What about the GI50 (SF-295) of the same compound?
A: 28.2 µM (inactive)

Q: And the GI50 (SK-MEL-5)?
A: 17.6 µM (inactive)

Q: What about the GI50 (UACC-257) of the same compound?
A: 43.8 µM (inactive)

Q: What about the GI50 (NCI-H460) of the same compound?
A: 21.2 µM (inactive)

Q: What about the GI50 (U-251) of the same compound?
A: 32.5 µM (inactive)

Q: What about the GI50 (HCT-116) of the same compound?
A: 17.9 µM (inactive)

Q: And the GI50 (ACHN)?
A: 30.5 µM (inactive)

Q: And the GI50 (OVCAR-8)?
A: 35.1 µM (inactive)

Q: What about the GI50 (EKVX) of the same compound?
A: 52.4 µM (inactive)

Q: What about the GI50 (UO-31) of the same compound?
A: 32.7 µM (inactive)

Q: What about the GI50 (HCT-15) of the same compound?
A: 30.6 µM

Q: What about the GI50 (NCI-H226) of the same compound?
A: 29 µM (inactive)

Q: What about the GI50 (KM12) of the same compound?
A: 29.6 µM (inactive)

Q: What about the GI50 (SN12C) of the same compound?
A: 42.7 µM (inactive)

Q: What about the GI50 (UACC-62) of the same compound?
A: > 100 µM (inactive)

Q: `c1cc(C2=NCCO2)c2ccsc2c1` was tested. Which GI50 (DU-145) did it give?
A: > 100 µM (inactive)

Q: What about the GI50 (SF-539) of the same compound?
A: > 100 µM (inactive)

Q: And the GI50 (PC-3)?
A: > 100 µM (inactive)

Q: And the GI50 (HT-29)?
A: > 100 µM (inactive)

Q: What about the GI50 (SF-295) of the same compound?
A: > 100 µM (inactive)

Q: What about the GI50 (SK-MEL-5) of the same compound?
A: > 100 µM (inactive)

Q: What about the GI50 (UACC-257) of the same compound?
A: > 100 µM (inactive)

Q: What about the GI50 (NCI-H460) of the same compound?
A: > 100 µM (inactive)

Q: What about the GI50 (U-251) of the same compound?
A: > 100 µM (inactive)

Q: And the GI50 (HCT-116)?
A: > 100 µM (inactive)

Q: What about the GI50 (ACHN) of the same compound?
A: > 100 µM (inactive)

Q: And the GI50 (OVCAR-8)?
A: > 100 µM (inactive)

Q: And the GI50 (EKVX)?
A: > 100 µM (inactive)

Q: And the GI50 (UO-31)?
A: > 100 µM (inactive)

Q: And the GI50 (HCT-15)?
A: > 100 µM

Q: And the GI50 (NCI-H226)?
A: > 100 µM (inactive)

Q: And the GI50 (KM12)?
A: > 100 µM (inactive)

Q: And the GI50 (SN12C)?
A: > 100 µM (inactive)

Q: What about the GI50 (UACC-62) of the same compound?
A: > 100 µM (inactive)
